In patent US7977120B2, “Fluorescent sensors for cellular amines” (The Curators of the University of Missouri, priority 2005, dated 2011):
“Also recorded” adds a separate entry of the source.

Tests used:
[1] = Relative affinity of dimer sensors across amine guests; format: binding; conditions: for guest selectivity (in words): comparison of guests, Tables 3 and 4
Description: The certain exemplary dimer sensors IIIa-g have been probed spectroscopically by UV-vis and fluorescence titration experiments.
Water solubilizing groups, such as polyethylene groups, can be provided on the quinolone core in a straightforward synthetic manner. Binding constants and maximum fluorescence changes (Isat/I0) are provided in Table 4 for a few representative guests.

[2] = Fluorescence titration of quinolone sensors with butylamine; format: binding; conditions: Table 3; for Ka, Butylamine: 1:1 methanol-buffer, error ±20%, duplicate titrations; for Isat/I0, Butylamine: maximum change in fluorescence from theoretical fit
[3] = UV-vis and fluorescence titration of quinolone sensors with diaminopropane; format: binding; conditions: for Isat/I0, Diaminopropane / Ka, Diaminopropane: Table 3; for Ka, Diaminopropane: 1:1 methanol-buffer
Description: (§1) The present invention further discloses that the Quinolone-Dimer Sensors III can also provide detection for diamine analytes. The certain exemplary dimer sensors IIIa-g have been probed spectroscopically by UV-vis and fluorescence titration experiments. […] Moreover, by variation of the linker portion of the sensor III, useful selectivities for different length diamino-analytes have been achieved.
(§2) First, the absorption spectra show trends similar to those observed with the coumarin sensors in which a large red shift in absorption maximum is observed upon addition of diamines to the sensors. […] As shown in FIG. 11(a), when sensor IIIg is titrated with diaminopropane, a 28 nm shift in absorbance is observed consistent with a shift from aldehyde to iminium ion forms. The red shift in absorption has been attributed to the hydrogen bond between the formed iminium ion and the carbonyl group of the chromophore. In fluorescence mode, by exciting the chromophore at 495 nm, a large increase in fluorescence was observed upon titration with the diamine (FIG. 11(b)). The fluorescence increase is fitted to a one-site binding isotherm which gave a binding constant of 6700 M^−1 with a maximum fluorescence increase at saturation (Isat/I0) of 6.6-fold.
(§3) Generally, the dimeric sensors were not as soluble as the monomeric derivatives, so binding studies were performed in 1:1 methanol:buffer (10 mM HEPES, pH=7.4). Water solubilizing groups, such as polyethylene groups, can be provided on the quinolone core in a straightforward synthetic manner. Binding constants and maximum fluorescence changes (Isat/I0) are provided in Table 4 for a few representative guests.

[4] = Fluorescence titration of quinolone sensors with lysine; format: binding; conditions: Table 3; for Ka, Lysine: 1:1 methanol-buffer
Description: as §1, §2, §3

[5] = Fluorescence titration of quinolone sensors with diaminopentane; format: binding; conditions: Table 3; for Ka, Diaminopentane: 1:1 methanol-buffer
Description: (§4) The present invention further discloses that the Quinolone-Dimer Sensors III can also provide detection for diamine analytes. The certain exemplary dimer sensors IIIa-g have been probed spectroscopically by UV-vis and fluorescence titration experiments. […] Moreover, by variation of the linker portion of the sensor III, useful selectivities for different length diamino-analytes have been achieved. First, the absorption spectra show trends similar to those observed with the coumarin sensors in which a large red shift in absorption maximum is observed upon addition of diamines to the sensors. […] As shown in FIG. 11(a), when sensor IIIg is titrated with diaminopropane, a 28 nm shift in absorbance is observed consistent with a shift from aldehyde to iminium ion forms. The red shift in absorption has been attributed to the hydrogen bond between the formed iminium ion and the carbonyl group of the chromophore. In fluorescence mode, by exciting the chromophore at 495 nm, a large increase in fluorescence was observed upon titration with the diamine (FIG. 11(b)).

[6] = Fluorescence titration of quinolone sensors with diaminobutane; format: binding; conditions: Table 3; for Ka, Diaminobutane: 1:1 methanol-buffer
Description: as §4

[7] = Fluorescence titration of quinolone sensors with ornithine; format: binding; conditions: Table 3; for Ka, Ornithine: 1:1 methanol-buffer
Description: as §4

[8] = system: bovine adrenal chromaffin cells; test: Staining chromaffin cells with the simple monomer IIa (confocal microscopy); format: cell-based; conditions: for staining of cells seen by confocal microscopy: 0.5 μM, 15 minutes, 37 C, excitation 488 nm
Protocol: The present invention further provides that the Quinolone-Monomer Sensors II can sense catecholamines and map their movements in a live cell. The initial proof of concept has been carried out by staining chromaffin cells with the simple monomer IIa. Specifically, several sets of chromaffin cells (which contain norepinephrine) were freshly prepared on coverslips and various concentrations of IIa in media were added.
A stock solution of 50 mM in DMSO was diluted in cell culture media to yield a final concentration of 0.5 uM. Cells were incubated in this solution at 37 C for 15 minutes and then the cells were washed with cell culture media without dye and observed using a confocal microscope at room temperature. The excitation wavelength was 488 nm.
Several sets of chromaffin cells (which contain norepinephrine) were freshly prepared on coverslips and various concentrations of 112 in media were added. […] The nuclei are clearly visible as dark regions. […] Given that the sensor should bind equally well to all amines, it is likely that that the sensor is actively accumulating in the vesicles.

[9] = system: epinephrine-enriched chromaffin cells; test: Staining epinephrine-enriched chromaffin cells with Sensor IIb; format: cell-based; conditions: identical conditions as norepinephrine cells
Description: (§5) The adrenal medulla contains two types of chromaffin cells; those that primarily contain norepinephrine within vesicles and those that primarily contain epinephrine. The two types of cells can be separated upon high-speed centrifugation in a Percoll density gradient. Following centrifugation, the less-dense norepinephrine enriched cells can be collected from the top of the gradient, whereas the denser epinephrine-enriched cells settle to the bottom.
(§6) Following centrifugation of adrenal medullary cells in a Percoll density gradient, the less-dense norepinephrine enriched cells were collected from the top of the gradient, whereas the denser epinephrine-enriched cells were collected from the bottom of the gradient. Both collections of cells were incubated for 15 minutes at 37 C in 0.25 μM IIb dissolved in cell culture media. The cells were then washed in dye-free media and observed using a confocal microscope at room temperature.
(§7) Because it is possible to separate chromaffin cells into populations which contain epinephrine and norepinephrine, these cells were used to test sensor 76.

[10] = system: norepinephrine-enriched chromaffin cells; test: Staining norepinephrine-enriched chromaffin cells with Sensor IIb; format: cell-based; conditions: 0.25 μM, 15 minutes, 37 C, confocal microscopy; compared with epinephrine-enriched cells
Description: as §5, §6, §7

[11] = UV-vis absorption / fluorescence titration of sensor Ia with dopamine; format: binding; conditions: excited at 484 nm, FIG. 8
Description: First, the sensors I produce a large chromophoric response when reacting with primary amines under physiological conditions. One exemplary coumarin-based sensor, 2-(((5-(7-(diethylamino)-3-formyl-2-oxo-2H-chromen-4-yl)pentyl)(methyl)amino)methyl)phenylboronic acid, sensor Ia, has been examined spectrophotometrically by titration with dopamine under neutral aqueous conditions in which a reducing agent is included to suppress oxidation of the air-sensitive catechol group.
The titration conditions are 10 μM sensor Ia with 100 mM Na2S2O3, 50 mM HEPES, 20 mM NaCl, pH=7.0, and at 37° C. […] Therefore, the inventive coumarin-based sensors I are selective for primary amines. See also, Org. Lett. 2004, 6(21), 3727-3730, which is incorporated herein by reference.
Table 2 also lists the fluorescence response of the sensor Ia as Isat/I0 (the maximum fluorescence change at saturation) for three different excitation wavelengths: 446 nm, 484 nm, and 495 nm. By exciting sensor Ia at the aldehyde absorption maximum (446 nm), a decrease in fluorescence has been observed for all analytes because the sensor shifted from the aldehyde to the iminium ion form. At higher wavelengths of excitation, simple amines give the typical large increase in fluorescence since the iminium ion preferentially absorbs at these wavelengths. […] The fluorescence quenching effect is found to be directly related to the catechol group. […]

| Compound | guest selectivity (in words) [1] | Ka, Butylamine [2] [M⁻¹] | Isat/I0, Butylamine [2] | Isat/I0, Diaminopropane [3] | Ka, Diaminopropane ([3]; excitation 495 nm) [M⁻¹] | Isat/I0, Lysine [4] | Ka, Lysine [4] [M⁻¹] | Isat/I0, Diaminopentane [5] | Ka, Diaminopentane [5] [M⁻¹] | Isat/I0, Diaminobutane [6] | Ka, Diaminobutane [6] [M⁻¹] | Isat/I0, Ornithine [7] | Ka, Ornithine [7] [M⁻¹] | further results |
| --- | --- | --- | --- | --- | --- | --- | --- | --- | --- | --- | --- | --- | --- | --- |
| CN(C)c1ccc2c(Sc3cccc(Sc4c(C=O)c(=O)n(Cc5ccccc5)c5cc(N(C)C)ccc45)c3)c(C=O)c(=O)n(Cc3ccccc3)c2c1 [Sensor IIId, meta-Benzenedithiol Dimer] | preference for ornithine | 72 | 8.8 | 16 | 3400 | 4.7 | 2100 | 15 | 1200 | 15 | 1600 | 13 | 3300 | – |
| CN(C)c1ccc2c(Sc3ccccc3Sc3c(C=O)c(=O)n(Cc4ccccc4)c4cc(N(C)C)ccc34)c(C=O)c(=O)n(Cc3ccccc3)c2c1 [Sensor IIIe] | – | 30 | 10 | 8.5 | 350 | 10 | 800 | 4.3 | 350 | 10 | 160 | 7.3 | 680 | – |
| CN(C)c1ccc2c(SCCCSc3c(C=O)c(=O)n(Cc4ccccc4)c4cc(N(C)C)ccc34)c(C=O)c(=O)n(Cc3ccccc3)c2c1 [Sensor IIIf] | the preferred guest in both cases is lysine | 31 | 26 | 15 | 2100 | 24 | 1460 | 24 | 270 | 24 | 690 | 22 | 550 | – |
| CN(C)c1ccc2c(SCCCCCSc3c(C=O)c(=O)n(Cc4ccccc4)c4cc(N(C)C)ccc34)c(C=O)c(=O)n(Cc3ccccc3)c2c1 [Sensor IIIg] | the preferred guest in both cases is lysine | 43 | 38 | 6.6 | 6700 | 27 | 2756 | 18 | 2200 | 27 | 1477 | 20 | 2400 | extent of the difference, diamines bind better than butyl amine ([1]; ratio of binding constants, Table 3): 160 fold; maximum fluorescence increase at saturation (Isat/I0) ([3]; excitation 495 nm, one-site binding isotherm, FIG. 11(b)): 6.6 fold |
| CCSc1c(C=O)c(=O)n(Cc2ccccc2)c2cc(N(C)C)ccc12 [Sensor IIa, 1-benzyl-7-(dimethylamino)-4-(ethylthio)-2-oxo-1,2-dihydroquinoline-3-carbaldehyde] | – | 76 | 32 | – | – | 41 | 129 | – | – | – | – | – | – | membrane / cell permeability [8]: membrane permeable; staining of cells seen by confocal microscopy [8]: selectively stained; also recorded: punctate staining; staining of cells seen by confocal microscopy ([8]; listed as 112): selectively stained; optimal sensor concentration ([8]; 15 minutes of equilibration time): 0.5 µM |
| CN(CCCSc1c(C=O)c(=O)n(Cc2ccccc2)c2cc(N(C)C)ccc12)Cc1ccccc1B(O)O [Sensor IIb] | – | – | – | – | – | – | – | – | – | – | – | – | – | staining of epinephrine-containing cells [9]: did not stain well; staining of norepinephrine-enriched cells [10]: stained brightly |
| CCN(CC)c1ccc2c(CCCCCN(C)Cc3ccccc3B(O)O)c(C=O)c(=O)oc2c1 [Sensor Ia, 2-(((5-(7-(diethylamino)-3-formyl-2-oxo-2H-chromen-4-yl)pentyl)(methyl)amino)methyl)phenylboronic acid] | – | – | – | – | – | – | – | – | – | – | – | – | – | fluorescence on binding dopamine [11]: quenched upon binding dopamine |
